Test results reported in the supplement of paper PMC12613149.
Where a name gives a salt, the structure may show the parent alone.

Key:
[1] = collision cross section (TIMS, N2 drift gas) of the primary ion; higher = larger gas-phase ion size
[2] = reversed-phase LC retention time (C18, 15 min MeOH gradient); higher = more hydrophobic / later elution
[3] = ionization mode: ESI+, ion species: [M+H]+
[4] = ionization mode: ESI-, ion species: [M-H]-
[5] = ionization mode: ESI+, ion species: [M]+

collision cross section [1, 4]	reversed-phase LC retention time [2, 4]	collision cross section [1, 5]	reversed-phase LC retention time [2, 5]	SMILES	collision cross section [1, 3]	reversed-phase LC retention time [2, 3]
				CC[C@H]1CCC[C@H](O[C@H]2CC[C@H](N(C)C)[C@@H](C)O2)[C@@H](C)C(=O)C2=C[C@@H]3[C@@H](C=C[C@@H]4C[C@@H](O[C@@H]5O[C@@H](C)[C@H](OC)[C@@H](OC)[C@H]5OC)C[C@@H]34)[C@@H]2CC(=O)O1 [Spinosyn A]	267.49 Å²	15.9 min
				CCC(C)(C)C(=O)OC1=C(c2ccc(Cl)cc2Cl)C(=O)OC12CCCCC2 [Spirodiclofen]	193.38 Å²	11.5 min
				CCCN(CC)CC1COC2(CCC(C(C)(C)C)CC2)O1 (centres undefined) [Spiroxamine]	177.53 Å²	14.2 min
174.98 Å²	8.22 min			OCC1OC(OC2(CCl)OC(CCl)C(O)C2O)C(O)C(O)C1Cl (centres undefined) [Sucralose]		
170.58 Å²	6.81 min			COc1cc(NS(=O)(=O)c2ccc(N)cc2)nc(OC)n1 [Sulfadimethoxine]	170.07 Å²	9.96 min
165.06 Å²	7.46 min			Cc1cc(C)nc(NS(=O)(=O)c2ccc(N)cc2)n1 [Sulfamethazine]	163.66 Å²	7.95 min
155.15 Å²	6.7 min			Nc1ccc(S(=O)(=O)Nc2ccccn2)cc1 [Sulfapyridine]	154.05 Å²	6.69 min
152.72 Å²	5.71 min			Nc1ccc(S(=O)(=O)Nc2nccs2)cc1 [Sulfathiazole]	153.27 Å²	6.39 min
				O=P(OC(CCl)CCl)(OC(CCl)CCl)OC(CCl)CCl [TDCPP]	177.62 Å²	15.5 min
				CC(C)CC(C)(O)C#CC(C)(O)CC(C)C (centres undefined) [TMDD]	168.69 Å²	16.4 min
				CC/C(=C(\c1ccccc1)c1ccc(OCCN(C)C)cc1)c1ccccc1 [Tamoxifen]	198.29 Å²	15.7 min
164.44 Å²	5.86 min			O=C1c2c(O)cc(O)cc2O[C@H](c2ccc(O)c(O)c2)[C@H]1O [Taxifolin]		
				CC(C)(C)C(O)(CCc1ccc(Cl)cc1)Cn1cncn1 (centres undefined) [Tebuconazole]	168.02 Å²	15.5 min
237.73 Å²	14.6 min			CCCc1nc2c(C)cc(-c3nc4ccccc4n3C)cc2n1Cc1ccc(-c2ccccc2C(=O)O)cc1 [Telmisartan]	231.26 Å²	14.2 min
				CN1C(=O)C(O)N=C(c2ccccc2)c2cc(Cl)ccc21 (centres undefined) [Temazepam]	167.53 Å²	13.4 min
				CN(C/C=C/C#CC(C)(C)C)Cc1cccc2ccccc12 [Terbinafine]	187.34 Å²	13.8 min
151.91 Å²	12.4 min			CCNc1nc(=O)nc(NC(C)(C)C)[nH]1 [Terbuthylazine-2-hydroxy]		
				CCNc1nc(Cl)nc(NC(C)(C)C)n1 [Terbuthylazine]	153.3 Å²	14 min
				CCNc1nc(NC(C)(C)C)nc(SC)n1 [Terbutryn]	160.25 Å²	14 min
				C[C@]12CC[C@H]3[C@@H](CCC4=CC(=O)CC[C@@]43C)[C@@H]1CC[C@@H]2O [Testosterone]	172.76 Å²	14.2 min
192.83 Å²	15.3 min			CC(C)(c1cc(Br)c(O)c(Br)c1)c1cc(Br)c(O)c(Br)c1 [Tetrabromobisphenol A]		
		167.79 Å²	11 min	CCCC[N+](CCCC)(CCCC)CCCC [Tetrabutylammonium]		

collision cross section [1, 4]	reversed-phase LC retention time [2, 4]	collision cross section [1, 5]	reversed-phase LC retention time [2, 5]	SMILES	collision cross section [1, 3]	reversed-phase LC retention time [2, 3]
				CCCCNc1ccc(C(=O)OCCN(C)C)cc1 [Tetracain]	173.87 Å²	11.2 min
175.12 Å²	17.2 min			CCCCCCCCCCCCCCOS(=O)(=O)O [Tetradecylsulfate]		
		187.45 Å²	16.5 min	CCCCCCCCCCCCCC[N+](C)(C)C [Tetradecyltrimethylammonium]		
		123.33 Å²	1.03 min	CC[N+](CC)(CC)CC [Tetraethylammonium]		
				COCCOCCOCCOCCOC [Tetraglyme]	152.39 Å²	8.94 min
				O=C1NC(=O)C2CC=CCC12 (centres undefined) [Tetrahydrophthalimide]	130.01 Å²	5.38 min
				Cn1cnc2c1c(=O)[nH]c(=O)n2C [Theobromine]	130.33 Å²	5.81 min
				Cn1c(=O)c2[nH]cnc2n(C)c1=O [Theophyllin]	135.99 Å²	6.64 min
				c1ccc2[nH]c(-c3cscn3)nc2c1 [Thiabendazole]	138.79 Å²	8.08 min
				NC(=O)/N=C1\SCCN1Cc1ccc(Cl)nc1 [Thiacloprid amide]	159.22 Å²	8.75 min
115.69 Å²	6.79 min			O=c1[nH]nc(C(F)(F)F)s1 [Thiadone]		
				CN1COCN(Cc2cnc(Cl)s2)/C1=N/[N+](=O)[O-] [Thiamethoxam]	159.96 Å²	7.66 min
				COP(=S)(OC)Oc1c(Cl)cc(C)cc1Cl [Toclofos-methyl]	151.78 Å²	15.8 min
158.38 Å²	14.2 min			Cc1c(Cl)cccc1Nc1ccccc1C(=O)O [Tolfenamic acid]	156.85 Å²	16.6 min
184.59 Å²	12.4 min			Cc1cccc(Nc2ccncc2S(=O)(=O)NC(=O)NC(C)C)c1 [Torasemide]	188.49 Å²	11.5 min
				COc1cccc([C@@]2(O)CCCC[C@@H]2CN(C)C)c1 [Tramadol]	160.98 Å²	9.25 min
				CCCCOCCOP(=O)(OCCOCCCC)OCCOCCCC [Tri(butoxyethyl)phosphate]	198.12 Å²	16.7 min
				CC(C)COP(=O)(OCC(C)C)OCC(C)C [Tri-isobutylphosphate]	165.01 Å²	16.3 min
				CCCCOC(=O)CC(O)(CC(=O)OCCCC)C(=O)OCCCC [Tri-n-butyl citrate]	203.87 Å²	16.5 min
				CC(C)N(C(=O)SCC(Cl)=C(Cl)Cl)C(C)C [Triallate]	162.33 Å²	17.2 min
				CCCCN(CCCC)CCCC [Tributylamine]	148.84 Å²	10.1 min
				COP(=O)(OC)C(O)C(Cl)(Cl)Cl (centres undefined) [Trichlorfon]	138.18 Å²	9.07 min

SMILES	collision cross section [1, 4]	reversed-phase LC retention time [2, 4]	collision cross section [1, 5]	reversed-phase LC retention time [2, 5]	collision cross section [1, 3]	reversed-phase LC retention time [2, 3]
CS(=O)(=O)c1ccc(C(=O)C2C(=O)CCCC2=O)c(Cl)c1 [Sulcotrione]	173.26 Å²	6.87 min			175.92 Å²	11.1 min
CCC(=NOC/C=C/Cl)C1=C(O)CC(C2CCOCC2)CC1=O (centres undefined) [Tepraloxydim (two peaks)]	181.89 Å²	9.17 min			186.68 Å²	14.7 min
N#C/N=C1/SCCN1Cc1ccc(Cl)nc1 [Thiacloprid]	153.51 Å²	10 min			158.43 Å²	9.94 min
